Reference: BindingDB's records for doi:10.1021/jm00017a003 (Sterling Winthrop Pharmaecuticals Research Division, 1995)

Experiment: The compound was tested for inhibition of HIV-1 replication in SW480 cells using HIV tat assay

SMILES | IC50
C[C@@]12CCCC[C@]13O[C@@H]3C(=O)C(C#N)C2 (some centres not stated) | 34 µM
C[C@]12CCCC[C@]1(O)[C@H](Cl)C(=O)C(C(N)=O)C2 (some centres not stated) | 32.1 µM
C[C@]12CCCC[C@@]13O[C@H]3C(=O)C(C#N)C2 (some centres not stated) | 278 µM
C[C@@]12CCCC[C@@]1(O)[C@@H](Cl)C(=O)C(C(=O)Nc1ccccc1)C2 (some centres not stated) | 7 µM
C[C@]12CC[C@H]3[C@@H](CC[C@@]45O[C@@H]4C(=O)C(S(=O)(=O)c4ccccc4)C[C@]35C)[C@@H]1CC[C@@H]2O (some centres not stated) | 10.3 µM
CC(=O)O[C@H]1CC[C@H]2[C@@H]3CC[C@@]45O[C@@H]4C(=O)C(S(C)(=O)=O)C[C@]5(C)[C@H]3CC[C@]12C (some centres not stated) | 2.6 µM
CC(=O)O[C@H]1CC[C@H]2[C@@H]3CC[C@@]45O[C@@H]4C(=O)C(C(N)=O)C[C@]5(C)[C@H]3CC[C@]12C (some centres not stated) | 2.6 µM
C[C@]12CC[C@H]3[C@@H](CC[C@@]45O[C@@H]4C(=O)C(C(N)=O)C[C@]35C)[C@@H]1CC[C@@H]2O (some centres not stated) | 14.3 µM
COc1ccc(NC(=O)C2C[C@]3(C)CCCC[C@@]3(O)[C@@H](Cl)C2=O)cc1 (some centres not stated) | 33.5 µM
C[C@@]12CCCC[C@]13O[C@@H]3C(=O)C(C(=O)Nc1ccccc1)C2 (some centres not stated) | 2.8 µM
CC(=O)O[C@H]1CC[C@H]2[C@@H]3CC[C@@]45O[C@@H]4C(=O)C(C#N)C[C@]5(C)[C@H]3CC[C@]12C (some centres not stated) | 24.5 µM
CC(=O)O[C@H]1CC[C@H]2[C@@H]3CC[C@@]4(O)[C@@H](Cl)C(=O)C(C(N)=O)C[C@]4(C)[C@H]3CC[C@]12C (some centres not stated) | 8.4 µM
COc1ccc(NC(=O)C2C[C@]3(C)CCCC[C@]34O[C@@H]4C2=O)cc1 (some centres not stated) | 25.7 µM
C[C@@]12CCCC[C@@]1(O)[C@@H](Cl)C(=O)C(C(N)=O)C2 (some centres not stated) | 16.5 µM
C[C@@]12CCCC[C@]13O[C@@H]3C(=O)C(C(N)=O)C2 (some centres not stated) | 9.9 µM
C[C@]12CCCC[C@@]13O[C@H]3C(=O)C(C(N)=O)C2 (some centres not stated) | 72 µM
C[C@]12CC[C@H]3[C@@H](CC[C@@]45O[C@@H]4C(=O)CC[C@]35C)[C@@H]1CC[C@@H]2O | 15.4 µM
COc1ccc(NC(=O)C2CC(C)(C)C3OC3C2=O)cc1 (configuration not stated) | 21.4 µM
C[C@]12CCC3C(CC[C@@]45O[C@@H]4C(=O)C(S(C)(=O)=O)C[C@]35C)C1CC[C@@H]2O (some centres not stated) | 8.4 µM
COC(=O)C1C[C@]2(C)[C@H]3CC[C@]4(C)[C@@H](OC(C)=O)CC[C@H]4[C@@H]3CC[C@]23O[C@@H]3C1=O (some centres not stated) | 2.7 µM
CC1(C)CC(C(=O)Nc2c(Cl)cccc2Cl)C(=O)C2OC21 (configuration not stated) | 31.7 µM
COC(=O)C1C[C@]2(C)[C@H]3CC[C@]4(C)[C@@H](O)CC[C@H]4[C@@H]3CC[C@]23O[C@@H]3C1=O (some centres not stated) | 3.6 µM
